Reference: US20240392343A1, “METHODS TO SCREEN YEAST TO IDENTIFY XENOBIOTICS THAT TARGET PESTS, PATHOGENS AND PARASITES” (The Governing Council of the University of Toronto, priority 2023, published 2024)
“Also recorded” adds a separate entry of the source.

Experiments:
[1] = test system: cytochrome P450s in C. elegans and diverse PPN species; assay: HPLC of cyproside-3 parent and metabolites in whole worms with pan-P450 inhibitor 1-ABT; type: in vivo
Text: (§1) FIGS. A-A′″ show HPLC chromatograms with cyproside-3 (abbreviated cypros-3) unmodified parent molecule (P) and metabolite (M1-M5) peaks indicated. MP1 is a cyproside-3 metabolite uniquely produced in P. penetrans. Y-axis indicates absorbance wavelength in nm. FIGS. B-B′″ show quantification of unmodified cyproside-3 parent (P) and metabolite peaks from A-A′″. Error bars indicate SEM, p-values calculated using unpaired t-test. FIGS. C-C′″ show the proportion mobile worms relative to DMSO solvent controls after 72-hour exposure to 20 μM cyproside-3 (C. elegans) or 60 μM cyproside-3 (all other species). P-values calculated using unpaired t-test.
(§2) Using the pan-P450 inhibitor (1-ABT), cyproside-3's metabolism was inhibited in vivo (FIGS. 11A and 11B).

[2] = test system: C. elegans and diverse PPN species; assay: Worm mobility after cyproside-3 exposure with 1-ABT; type: in vivo; settings: 72-hour exposure to 20 μM cyproside-3 (C. elegans) or 60 μM cyproside-3 (all other species)
Text: as §1, §2

[3] = test system: M. incognita CYP4731A3; assay: CYPce assay: yeast-based M. incognita CYP expression screen and dose-response; type: cell-based, Meloidogyne incognita; settings: 19 M. incognita CYP-expressing yeast strains vs empty vector, 50 μM in screen
Text: (§3) Each data point corresponds to an individual yeast strain expressing a unique M. incognita CYP enzyme. The data point above the dotted line has a p-value <0.01, and corresponds to the strain expressing M. incognita CYP4731A3. […] Unmodified sel-A and metabolites M2 and M3 are indicated. […] AUC is the area under the curve for M2 and M3 combined, calculated at 260 nm. Error bars are SEM. The p-value was obtained from an unpaired one-tailed Student's t-test comparing the means of empty vector control and CYP4731A3 expressing yeast. M1 was not detectable.
(§4) Each data point corresponds to an individual yeast strain expressing a unique M. incognita P450 enzyme. The data point above the dotted line has a p-value <0.01 and corresponds to the strain expressing M. incognita CYP4731A3. […] Viability relative to untreated controls is indicated by the grey-coded scale. […] Peaks corresponding to the unmodified cyproside-3 and the three cyproside-3 metabolites visible using the HPLC-DAD system (M1, M2 and M3) are indicated. […] AUC is the area under the curve, error bars indicate SEM. […]
With that single strain, a library of small molecules are screened for those that can be bioconverted by the heterologously-expressed enzyme into a product that kills the cells expressing the enzyme. As set out herein, the growth of cells was measured, for example, by a variety of means, including optical density. […]

[4] = test system: Mi-CYP4731A3; assay: HPLC analysis of lysates of yeast expressing CYP4731A3; type: in vitro ADME, Meloidogyne incognita; settings: lysates of yeast treated with 100 μM compound
Text: as §3
as §4, with “SEM. The p-values were obtained from unpaired two-tailed Student's t-tests comparing the means of the empty vector control and CYP4731A3 expressing yeast.” for “SEM.”

[5] = target: T1, C. elegans P450 CYP-35D1 (Caenorhabditis elegans, UniProt O45364); assay: CYPce assay: viability of yeast expressing CYP-35D1 vs empty vector; type: cell-based; settings: yeast expressing CYP-35D1 vs empty vector yeast; dose-response
T1 construct: expressed in transfected cells; host or cells: Saccharomyces cerevisiae (yeast), expression vector vs empty vector
T1 sequence (O45364 1-499): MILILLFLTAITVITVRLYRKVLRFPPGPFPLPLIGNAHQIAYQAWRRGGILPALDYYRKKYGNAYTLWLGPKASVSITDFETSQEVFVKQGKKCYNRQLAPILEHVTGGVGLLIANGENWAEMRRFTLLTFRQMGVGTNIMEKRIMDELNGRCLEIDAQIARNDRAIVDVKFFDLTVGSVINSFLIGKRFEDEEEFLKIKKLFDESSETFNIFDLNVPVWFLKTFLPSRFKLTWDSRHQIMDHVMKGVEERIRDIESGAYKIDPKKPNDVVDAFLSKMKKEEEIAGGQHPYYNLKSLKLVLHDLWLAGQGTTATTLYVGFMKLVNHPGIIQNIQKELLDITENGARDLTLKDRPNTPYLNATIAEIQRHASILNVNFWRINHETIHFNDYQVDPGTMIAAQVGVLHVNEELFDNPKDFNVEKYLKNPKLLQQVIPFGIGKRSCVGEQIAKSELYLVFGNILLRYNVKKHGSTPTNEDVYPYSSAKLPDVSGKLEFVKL
Text: (§5) In this condition cyproside-3 is not metabolized into a lethal product and yeast are viable. […] CYP-35D1 is capable of metabolizing cyproside-3 into an active metabolite which leads to reduced viability in the yeast. […] Viability relative to untreated controls is indicated by the gray coded scale. […] AUC is the area under the curve, error bars indicate SEM. The p-values were obtained from unpaired two-tailed Student's t-tests comparing the means of the empty vector control and CYP-35D1 expressing yeast. […] Peaks corresponding to the unmodified cyproside-3 and the three cyproside-3 metabolites visible using our HPLC-DAD system (M1, M2 and M3) are indicated.
CYPce (pronounced sip-sea) is an acronym for the heterologous expression of CYPs in S. cerevisiae for the purpose of identifying P450s that can bioactivate small molecules into lethal products that may or may not be reactive. […]
(§6) With that single strain, a library of small molecules are screened for those that can be bioconverted by the heterologously-expressed enzyme into a product that kills the cells expressing the enzyme. As set out herein, the growth of cells was measured, for example, by a variety of means, including optical density.

[6] = target: T2, CYP-35D1 (Caenorhabditis elegans, UniProt O45364); assay: HPLC / LCMS analysis of cyproside-3 metabolites, CYP-35D1; type: in vitro ADME, C. elegans; settings: lysates of yeast after treatment with 100 μM cyproside-3
T2 construct: expressed in transfected cells; host or cells: Saccharomyces cerevisiae (yeast), expression vector vs empty vector
T2 sequence (O45364 1-499): T1 sequence (O45364 1-499)
Text: as §5
Cytochrome P450 enzymes (CYPs) catalyze the S-oxidation of cyproside-3 which produces an electrophilic sulfoxide metabolite. This sulfoxide metabolite reacts with glutathione (GSH) and is further processed to γ-Glutamyl-Cysteine (γ-Glu-Cys), Cysteinylglycine (Cys-Gly) and cysteine (Cys) conjugates.

[7] = test system: diverse nematode species (non-parasitic and plant parasitic species); assay: Dose-response analysis on diverse nematode species (FIG. 10); type: in vivo; settings: dose-response relative to solvent control
Text: (§7) Dose-response analysis of cyproside-3 and tioxazafen on diverse nematode species and off-target systems including human cells (HEK293 and HepG2), fungi (Saccharomyces cerevisiae and Candida albicans) and plant beneficial rhizobacteria (Pseudomonas simiae WCS417 and Pseudomonas defensor WCS374). The activity of the compound relative to the solvent control in each assay is indicated by the gray coded scale.

[8] = test system: human cells (HEK293 and HepG2), fungi (Saccharomyces cerevisiae and Candida albicans) and plant beneficial rhizobacteria (Pseudomonas simiae WCS417 and …); assay: Dose-response analysis on off-target systems (FIG. 10); type: cell-based; settings: HEK293, HepG2, S. cerevisiae, C. albicans, P. simiae WCS417, P. defensor WCS374; relative to solvent control
Text: as §7

[9] = test system: Meloidogyne incognita; assay: Soil-based tomato root infection assay; type: in vivo; settings: 6 weeks of infection in soil drenched with chemical
Text: Cyprosides 3-2, 3-3, and 3-4 are structural analogs of cyproside-3. […] All error bars represent SEM, p-values calculated using an unpaired t test vs. solvent controls. […] Cyprosides 3-7, 3-12, 3-25, and 3-26 are structural analogs of cyproside-3. The other data points represent negative (water, DMSO) and positive (fluopyram, tioxazafen) controls. All error bars represent SEM.
There were no significant adverse effects on plant growth by the cyproside-3s as evident by the resulting root mass (FIG. 12C).

[10] = test system: C. elegans P450 CYP-35C1; assay: CYPce assay: viability of yeast expressing CYP-35C1 vs empty vector; type: cell-based; settings: yeast expressing CYP-35C1 vs empty vector yeast; dose-response
Text: (§8) Viability relative to untreated controls is indicated by the gray coded scale. […] The p-values were obtained from unpaired two-tailed Student's t-tests comparing the means of the empty vector control and CYP-35C1 expressing yeast.
CYPce (pronounced sip-sea) is an acronym for the heterologous expression of CYPs in S. cerevisiae for the purpose of identifying P450s that can bioactivate small molecules into lethal products that may or may not be reactive. The CYPce assay relies on culturing a single strain of yeast (S. cerevisiae) (or any convenient cell type in other embodiments) that expresses a single P450 enzyme (or any other small molecule modifying enzyme in other embodiments) from a single targeted organism (FIG. 2).
as §6

[11] = test system: CYP-35C1; type: in vitro ADME; settings: C. elegans
Text: as §8
FIGS. 6A-C show mass spectrometry (MS) data for metabolite M1-M3 HPLC fractions and untreated control fractions, as well as MS/MS fragmentation data for selected masses. Structures of γ-glutamylcysteine (γ-Glu-Cys) (A), glutathione (B), and cysteine (C) conjugates of a selectivin-A (sel-A) electrophilic sulfoxide metabolite are shown, along with fragmentations that produce masses found in the MS/MS plots. […] S-oxidation produces an electrophilic sulfoxide metabolite that reacts with glutathione (GSH) either spontaneously or via glutathione-S-transferase (GST), and is likely further processed to 7-Glu-Cys and cysteine conjugates via phytochelatin synthase (PCS) and 7-glutamyl transferase (GGT), respectively. Cytochrome p450 enzymes (CYPs) likely mediate S-oxidation.

SMILES	effect of 1-ABT on cyproside-3's metabolism in vivo [1]	effect of 1-ABT on cyproside-3's effects on the worms (mobility) [2]	yeast killing dependent on Mi-CYP4731A3 [3]	metabolism by Mi-CYP4731A3 in yeast (HPLC) [4]	yeast killing dependent on CYP-35D1 [5]	metabolism by CYP-35D1 (HPLC) [6]	phylogenetic activity profile: activity on nematode species [7]	activity against non-targeted cells and organisms [8]	control of root infection by M. incognita (eggs per milligram of tomato root tissue) [9]	yeast killing dependent on CYP-35C1 [10]	nature of product of metabolism by CYP-35C1 (LCMS and NMR) [11]	metabolism by CYP-35C1 in yeast (HPLC) ([11]; 100 μM)
Nn1nnc2ccccc21 [Cyproside 1-ABT, reference compound]	inhibited	inhibited cyproside-3's effects on the worms										
CCSc1nnc(-c2ccc(Cl)cc2)o1 [cyproside-3, 2-(4-chlorophenyl)-5-(ethylthio)-1,3,4-oxadiazole]			can kill yeast in a Mi-CYP4731A3-dependent manner	metabolized by Mi-CYP4731A3 in yeast	killed yeast in a manner dependent on C. elegans P450 CYP-35D1	metabolized by CYP-35D1 into a reactive product	high selectivity for all nematode species tested; also recorded: broad-spectrum activity in plant-parasitic nematodes	little-to-no activity against non-targeted cells and organisms	demonstrated activity			
Clc1ccc(-c2cn3ccsc3n2)cc1 [selectivin-A, 6-(4-chlorophenyl)imidazo[2,1-b]thiazole]			kills yeast in a Mi-CYP4731A3-dependent manner	metabolized by Mi-CYP4731A3 in yeast						kills yeast in a manner dependent on the C. elegans P450 CYP-35C1	metabolized by CYP-35C1 into a reactive lethal product	metabolized by CYP-35C1 in yeast
